`CC(C)(O)C#N` [2-hydroxy-2-methylpropanenitrile] registered a flash point of 74.00 °C.
The value for `CC(=O)OCCO` [2-hydroxyethyl acetate] was 102.00 °C; that for `NC(=O)OCCO` [2-hydroxyethyl carbamate] was 188.00 °C.
The value for `CCCCCCCCCCCCCCCCCC(=O)OCCO` [2-hydroxyethyl octadecanoate] was 260.00 °C; that for `O=C(O)CC(O)(CC(=O)O)C(=O)O` [2-hydroxypropane-1,2,3-tricarboxylic acid] was 100.00 °C; that for `CC(O)C#N` (configuration not stated) [2-hydroxypropanenitrile] was 77.00 °C.
The same measure for `CC(O)C(=O)O` (configuration not stated) [2-hydroxypropanoic acid]: 113.00 °C.
As to `C/C=C/c1ccc(O)c(OC)c1` [2-methoxy-4-[(E)-prop-1-enyl]phenol], the flash point stood at 113.00 °C.
The value for `COCCOC(C)=O` [2-methoxyethyl acetate] was 44.00 °C.
The value for `COc1ccccc1O` [2-methoxyphenol] was 74.00 °C.
The same measure for `COC(C)COC(C)=O` (configuration not stated) [2-methoxypropyl acetate]: 25.00 °C; for `CC(C)CNCC(C)C` [2-methyl-N-(2-methylpropyl)propan-1-amine]: 29.00 °C; for `Cc1ccccc1N` [2-methylaniline]: 85.00 °C.
`Cc1ccccc1C#N` [2-methylbenzonitrile]: the flash point amounted to 84.00 °C.
The same measure for `C=CC(C)(C)O` [2-methylbut-3-en-2-ol]: 13.00 °C; for `C=CC(=C)C` [2-methylbuta-1,3-diene]: -54.00 °C.
The same measure for `CCC(C)CO` (configuration not stated) [2-methylbutan-1-ol]: 50.00 °C.
In the case of `CCC(C)(C)OC(C)=O` [2-methylbutan-2-yl acetate], the flash point stood at 26.00 °C.
The value for `CC1CCCCC1=O` (configuration not stated) [2-methylcyclohexan-1-one] was 48.00 °C; that for `Cc1ccco1` [2-methylfuran] was -30.00 °C; that for `CC1CO1` (configuration not stated) [2-methyloxirane] was -37.00 °C.
The same measure for `C=C(C)CCC` [2-methylpent-1-ene]: -26.00 °C; for `CCCC(C)CO` (configuration not stated) [2-methylpentan-1-ol]: 54.00 °C.
The value for `CCCC(C)C=O` (configuration not stated) [2-methylpentanal] was 20.00 °C; that for `CC(O)CC(C)(C)O` (configuration not stated) [2-methylpentane-2,4-diol] was 93.00 °C; that for `C=C(C)C` [2-methylprop-1-ene] was -76.00 °C.
In turn, `C=C(C)C=O` [2-methylprop-2-enal] returned a flash point of 2.00 °C.
The value for `C=C(C)C(=O)O` [2-methylprop-2-enoic acid] was 77.00 °C.
The same measure for `CC(C)CN` [2-methylpropan-1-amine]: -9.00 °C; for `CC(C)(C)O` [2-methylpropan-2-ol]: 11.00 °C; for `CC(C)C` [2-methylpropane]: -83.00 °C.
The value for `CC(C)C#N` [2-methylpropanenitrile] was 8.00 °C; that for `CC(C)C(=O)OC(=O)C(C)C` [2-methylpropanoyl 2-methylpropanoate] was 59.00 °C; that for `CC(C)COC(=O)C(C)C` [2-methylpropyl 2-methylpropanoate] was 37.00 °C.
In turn, `CC(=O)OCC(C)C` [2-methylpropyl acetate] gave a flash point of 17.00 °C.
The value for `C=CC(=O)OCC(C)C` [2-methylpropyl prop-2-enoate] was 30.00 °C; that for `Cc1ccccn1` [2-methylpyridine] was 36.00 °C.
The same measure for `Cc1ccc2ccccc2n1` [2-methylquinoline]: 79.00 °C.
The same measure for `Nc1ccccc1[N+](=O)[O-]` [2-nitroaniline]: 168.00 °C; for `CCCCCCCCC1CO1` (configuration not stated) [2-octyloxirane]: 78.00 °C; for `OCCOc1ccccc1` [2-phenoxyethanol]: 121.00 °C.
Take `N#CCc1ccccc1` [2-phenylacetonitrile]: the flash point was determined as 102.00 °C.
The value for `OCCc1ccccc1` [2-phenylethanol] was 96.00 °C.
The same measure for `OCCOCc1ccccc1` [2-phenylmethoxyethanol]: 129.00 °C; for `c1ccc(C2CO2)cc1` (configuration not stated) [2-phenyloxirane]: 79.00 °C.
The same measure for `NCCN1CCNCC1` [2-piperazin-1-ylethanamine]: 93.00 °C; for `CC(C)c1ccc2ccccc2c1` [2-propan-2-ylnaphthalene]: 122.00 °C; for `O=C(O)CS` [2-sulfanylacetic acid]: 113.00 °C.
Consider `COc1ccc(O)c(C(C)(C)C)c1.COc1ccc(O)cc1C(C)(C)C` [2-tert-butyl-4-methoxyphenol;3-tert-butyl-4-methoxyphenol], for which the flash point was 113.00 °C.
The compound `COc1ccc(O)c(C(C)(C)C)c1` [2-tert-butyl-4-methoxyphenol] came in with a flash point of 156.00 °C.
The same measure for `CC(C)(C)OOC(C)(C)C` [2-tert-butylperoxy-2-methylpropane]: 18.00 °C.
For the compound `CC(C)(C)c1ccccc1O` [2-tert-butylphenol], the flash point came to 110.00 °C.
The value for `c1ccc2n[nH]nc2c1` [2H-benzotriazole] was 170.00 °C; that for `C=CC(F)(F)C(F)(F)C(F)(F)C(F)(F)F` [3,3,4,4,5,5,6,6,6-nonafluorohex-1-ene] was -17.00 °C.
Consider `CC1CC(O)CC(C)(C)C1` (configuration not stated) [3,3,5-trimethylcyclohexan-1-ol], for which the flash point turned out to be 74.00 °C.
The value for `O=CC1CCC=CO1` (configuration not stated) [3,4-dihydro-2H-pyran-2-carbaldehyde] was 48.00 °C; that for `C1=COCCC1` [3,4-dihydro-2H-pyran] was -18.00 °C.
The value for `Cc1ccc(N)cc1C` [3,4-dimethylaniline] was 98.00 °C; that for `CC(CCO)CC(C)(C)C` (configuration not stated) [3,5,5-trimethylhexan-1-ol] was 93.00 °C; that for `CN1CSC(=S)N(C)C1` [3,5-dimethyl-1,3,5-thiadiazinane-2-thione] was 93.00 °C.
The same measure for `Cc1cc(C)cc(N)c1` [3,5-dimethylaniline]: 93.00 °C; for `C=CC(C)(O)CCC=C(C)C` (configuration not stated) [3,7-dimethylocta-1,6-dien-3-ol]: 78.00 °C.
Regarding `CC(C)=CCCC(C)=CC=O` [3,7-dimethylocta-2,6-dienal], the flash point came to 102.00 °C.
The value for `CN1CCCC1c1cccnc1` (configuration not stated) [3-(1-methylpyrrolidin-2-yl)pyridine] was 101.00 °C; that for `CC1CCCCN1CCCOC(=O)c1ccc(Cl)c(Cl)c1` (configuration not stated) [3-(2-methylpiperidin-1-yl)propyl 3,4-dichlorobenzoate] was 71.00 °C.
Regarding `CCCCCCCCC/C=C/CC1CC(=O)OC1=O` (configuration not stated) [3-[(E)-dodec-2-enyl]oxolane-2,5-dione], the flash point stood at 178.00 °C.
The value for `O=C(O)CCP(CCC(=O)O)CCC(=O)O` [3-[bis(2-carboxyethyl)phosphanyl]propanoic acid] was 202.00 °C; that for `CC(=O)C1C(=O)C=C(C)OC1=O` (configuration not stated) [3-acetyl-6-methylpyran-2,4-dione] was 69.00 °C.
The value for `Oc1cccc(Br)c1` [3-bromophenol] was 110.00 °C; that for `OCCCBr` [3-bromopropan-1-ol] was 94.00 °C.
Regarding `C=C(C)CCl` [3-chloro-2-methylprop-1-ene], the flash point is -13.00 °C.
In turn, `OCCCCl` [3-chloropropan-1-ol] registered a flash point of 73.00 °C.
The same measure for `OCC(O)CCl` (configuration not stated) [3-chloropropane-1,2-diol]: 59.00 °C; for `CCOc1cc(C=O)ccc1O` [3-ethoxy-4-hydroxybenzaldehyde]: 145.00 °C; for `COC(C)CCOC(C)=O` (configuration not stated) [3-methoxybutyl acetate]: 77.00 °C.
The value for `Cc1cccc(C#N)c1` [3-methylbenzonitrile] was 87.00 °C; that for `CC(C)=CCO` [3-methylbut-2-en-1-ol] was 50.00 °C.
The value for `CC(C)=CC=O` [3-methylbut-2-enal] was 37.00 °C; that for `CC(C)C(C)O` (configuration not stated) [3-methylbutan-2-ol] was 33.00 °C.
Compound `CC(=O)C(C)C` [3-methylbutan-2-one] yielded a flash point of 6.00 °C.
The value for `CC(C)CC=O` [3-methylbutanal] was 13.00 °C.
The value for `CC(=O)OCCC(C)C` [3-methylbutyl acetate] was 25.00 °C.
As for `CC1CCCC(O)C1` (configuration not stated) [3-methylcyclohexan-1-ol], the flash point was 62.00 °C.
The same measure for `Cc1cccc(O)c1` [3-methylphenol]: 86.00 °C; for `Cc1cccnc1` [3-methylpyridine]: 36.00 °C; for `OCC=Cc1ccccc1` [3-phenylprop-2-en-1-ol]: 126.00 °C.
The value for `O=CC=Cc1ccccc1` [3-phenylprop-2-enal] was 120.00 °C; that for `C=CCOCC=C` [3-prop-2-enoxyprop-1-ene] was -7.00 °C.
The same measure for `CCCOCCCO` [3-propoxypropan-1-ol]: 53.00 °C.
In turn, `CCO[Si](CCCN)(OCC)OCC` [3-triethoxysilylpropan-1-amine] yielded a flash point of 98.00 °C.
The value for `C=C(C)C(=O)OCCC[Si](OC)(OC)OC` [3-trimethoxysilylpropyl 2-methylprop-2-enoate] was 92.00 °C.
The same measure for `O=C1OC(=O)C2CCCCC12` (configuration not stated) [3a,4,5,6,7,7a-hexahydro-2-benzofuran-1,3-dione]: 149.00 °C.

For the origin of these results see a flash point compilation (Sun et al. 2020).
